From ChEMBL document CHEMBL1921788, “Development of melanoma-targeted polymer micelles by conjugation of a melanocortin 1 receptor (MC1R) specific ligand” (J Med Chem, 2011)
Non-standard residues stand in square brackets, D forms with d. Residues, ends and D or L forms follow the SMILES beside them. d2Nal = N[C@H](Cc1ccc2ccccc2c1)C(=O)O; Nle = CCCC[C@H](N)C(=O)O

System: HEK293
Test: Selectivity ratio of Ki for human MC5 receptor expressed in human HEK293 cells to Ki for human MC1 receptor expressed in human HCT116 cells
Assay type: cell-based

`CCCC[C@H](NC(=O)[C@@H](NC(=O)[C@@H](N)Cc1ccc(O)cc1)C(C)C)C(=O)NCC(=O)N[C@@H](Cc1cnc[nH]1)C(=O)N[C@H](Cc1ccc2ccccc2c1)C(=O)N[C@@H](CCCNC(=N)N)C(=O)N[C@H](Cc1ccccc1)C(=O)N[C@@H](CC(=O)O)C(=O)N[C@@H](CCCNC(=N)N)C(=O)N[C@@H](Cc1ccccc1)C(=O)NCC(N)=O` (H-YV[Nle]GH[d2Nal]R[dF]DRFG-NH2) gave a Ratio Ki of 0.13.
